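Results reflect a 48-hour exposure of cells in 96-well plates to compound at five concentrations. At the GI50, growth is halved.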 Activity calls are given as the source filed them. Rule as the data show it: active = GI50 up to about 1.1 µM and inactive = higher.
Tests used:
Experiment in all cases: inhibition of tumour cell growth, NCI panel, 48 h
OVCAR-5 = test system: OVCAR-5
KM12 = test system: KM12
786-0 = test system: 786-0
M14 = test system: M14
MDA-N = test system: MDA-N
BT-549 = test system: BT-549
SN12C = test system: SN12C
TK-10 = test system: TK-10
SF-295 = test system: SF-295
UACC-62 = test system: UACC-62
NCI-H23 = test system: NCI-H23
SNB-19 = test system: SNB-19
NCI/ADR-RES = test system: NCI/ADR-RES
SK-MEL-5 = test system: SK-MEL-5
U-251 = test system: U-251
SNB-75 = test system: SNB-75
ACHN = test system: ACHN
SK-MEL-2 = test system: SK-MEL-2
HCC 2998 = test system: HCC 2998
CCRF-CEM = test system: CCRF-CEM

Measured: GI50

O=C(CSC1=NCCN1)c1ccccc1
inactive: OVCAR-5 > 100 µM | KM12 > 100 µM | 786-0 > 100 µM | M14 > 100 µM | MDA-N > 100 µM | BT-549 > 100 µM | SN12C > 100 µM | TK-10 > 100 µM | SF-295 > 100 µM | UACC-62 > 100 µM | NCI-H23 > 100 µM | SNB-19 > 100 µM | NCI/ADR-RES > 100 µM | SK-MEL-5 > 100 µM | U-251 > 100 µM | SNB-75 > 100 µM | ACHN > 100 µM | SK-MEL-2 > 100 µM

Cc1cc(-c2ccc(C(=O)O)[nH]2)on1
inactive: OVCAR-5 74.1 µM | KM12 > 100 µM | 786-0 51.4 µM | M14 52 µM | MDA-N 4.91 µM | BT-549 > 100 µM | TK-10 > 100 µM | SF-295 47.3 µM | UACC-62 48 µM | NCI-H23 69 µM | SNB-19 61.4 µM | NCI/ADR-RES 24.9 µM | SK-MEL-5 16.1 µM | U-251 65.6 µM | SNB-75 44.3 µM | HCC 2998 55 µM | ACHN > 100 µM | SK-MEL-2 88.5 µM

O=C(Nc1nc(C23CC4CC(CC(C4)C2)C3)cs1)c1cc2ccc(O)cc2oc1=O
inactive: OVCAR-5 21 µM | KM12 6.05 µM | 786-0 11.6 µM | MDA-N 14 µM | BT-549 > 10 µM | SN12C 11.2 µM | TK-10 26.8 µM | SF-295 16.5 µM | NCI-H23 11.7 µM | SNB-19 18.4 µM | NCI/ADR-RES 11.1 µM | CCRF-CEM 14.7 µM | SK-MEL-5 13.7 µM | U-251 12.8 µM | HCC 2998 10.6 µM | ACHN 10.6 µM

Cc1ccc(C)c(C(=N)c2ccccc2Cc2ccccc2)c1
inactive: OVCAR-5 25.9 µM | KM12 20.2 µM | 786-0 17 µM | M14 24.2 µM | MDA-N 23 µM | BT-549 32.7 µM | SN12C 17.3 µM | TK-10 47.9 µM | SF-295 20 µM | UACC-62 14.2 µM | NCI-H23 26.9 µM | SNB-19 42.6 µM | NCI/ADR-RES 25.4 µM | SK-MEL-5 15.5 µM | U-251 15.5 µM | HCC 2998 15.9 µM | ACHN 18.2 µM | SK-MEL-2 15.3 µM

CCOC(=O)CC1CCN(C(=O)c2ccccc2)C2Cc3c([nH]c4ccccc34)C12C[N+](=O)[O-] (stereo unspecified)
inactive: OVCAR-5 > 100 µM | KM12 71 µM | M14 63.2 µM | MDA-N > 100 µM | BT-549 > 100 µM | SN12C > 100 µM | TK-10 > 100 µM | SF-295 40.5 µM | UACC-62 58.7 µM | NCI-H23 73.6 µM | NCI/ADR-RES 49.4 µM | CCRF-CEM 12.6 µM | SK-MEL-5 57.8 µM | U-251 78.3 µM | SNB-75 56.6 µM | ACHN 67 µM | SK-MEL-2 > 100 µM

CSC(SC)=C1CC(=O)Nc2ccccc2C1=O
inactive: OVCAR-5 > 100 µM | KM12 > 100 µM | 786-0 45.6 µM | M14 80.2 µM | MDA-N 40.6 µM | BT-549 40.3 µM | SN12C 63.1 µM | TK-10 37 µM | SF-295 > 100 µM | UACC-62 24.6 µM | NCI-H23 29.9 µM | SNB-19 > 100 µM | NCI/ADR-RES > 100 µM | CCRF-CEM 19.7 µM | SK-MEL-5 51.5 µM | U-251 40.3 µM | HCC 2998 > 100 µM | ACHN > 100 µM | SK-MEL-2 53.3 µM

CCOC(=O)CCC(C(=O)OCC)n1nnc2ccc(Nc3c(C)[n+]([O-])c4cc(F)c(OCC)cc4[n+]3[O-])cc21 (stereo unspecified)
inactive: OVCAR-5 > 100 µM | KM12 80.4 µM | 786-0 > 100 µM | M14 62.4 µM | MDA-N 46.3 µM | BT-549 96.2 µM | SN12C 45.4 µM | TK-10 > 100 µM | SF-295 77.4 µM | UACC-62 20.1 µM | NCI-H23 73.3 µM | SNB-19 > 100 µM | NCI/ADR-RES 87.7 µM | CCRF-CEM 40 µM | SK-MEL-5 50.8 µM | U-251 63.8 µM | SNB-75 79.4 µM | ACHN 51.8 µM | SK-MEL-2 32.3 µM

CC1(C)CCC2=C(O1)c1ccccc1/C(=N/c1ccc([N+](=O)[O-])cc1)C2=O
inactive: KM12 14.5 µM | 786-0 20 µM | M14 8.24 µM | MDA-N 14.9 µM | BT-549 20.1 µM | TK-10 18.6 µM | UACC-62 14.7 µM | SNB-19 18.5 µM | NCI/ADR-RES 21.2 µM | SK-MEL-5 16.7 µM | U-251 14.4 µM | SNB-75 18.3 µM | HCC 2998 17.7 µM | ACHN 12.9 µM | SK-MEL-2 16.1 µM

O=C(O)CCCCCNC(=O)CCC(CN(CC(=O)OCc1ccccc1)CC(=O)OCc1ccccc1)N(CC(=O)OCc1ccccc1)CC(=O)OCc1ccccc1 (stereo unspecified)
inactive: OVCAR-5 18.2 µM | KM12 17.6 µM | 786-0 18 µM | M14 17.5 µM | MDA-N 18.2 µM | BT-549 18.9 µM | SN12C 18.4 µM | TK-10 16.3 µM | SF-295 17.3 µM | UACC-62 16.7 µM | NCI-H23 18.4 µM | SNB-19 17.9 µM | NCI/ADR-RES 20.3 µM | CCRF-CEM 16 µM | SK-MEL-5 17.3 µM | U-251 22 µM | HCC 2998 15.2 µM | ACHN 18.1 µM | SK-MEL-2 16 µM

CCC1C2Cc3ccc(O)cc3C1(CC)CCN2C (stereo unspecified)
inactive: OVCAR-5 > 100 µM | KM12 > 100 µM | 786-0 > 100 µM | M14 > 100 µM | MDA-N > 100 µM | BT-549 > 100 µM | SN12C > 100 µM | TK-10 > 100 µM | SF-295 > 100 µM | UACC-62 > 100 µM | NCI-H23 > 100 µM | SNB-19 > 100 µM | NCI/ADR-RES > 100 µM | CCRF-CEM > 100 µM | SK-MEL-5 > 100 µM | U-251 > 100 µM | SNB-75 > 100 µM | ACHN > 100 µM | SK-MEL-2 > 100 µM

O=C1CSSCC(=O)Nc2ccccc2N1
inactive: OVCAR-5 > 100 µM | KM12 > 100 µM | 786-0 > 100 µM | M14 > 100 µM | MDA-N > 100 µM | BT-549 > 100 µM | SN12C > 100 µM | TK-10 > 100 µM | SF-295 > 100 µM | UACC-62 > 100 µM | NCI-H23 > 100 µM | SNB-19 > 100 µM | NCI/ADR-RES > 100 µM | CCRF-CEM > 100 µM | SK-MEL-5 > 100 µM | U-251 > 100 µM | ACHN > 100 µM | SK-MEL-2 > 100 µM
